Numbered stars: 1 amine (or outer) side, 2 acyl side, 3 side chain; on linkers, the order of the positions; unused ones are H or OH. Bridge positions count the residues as written; N and C are the ends. Square brackets hold non-standard residues; d marks the D form. Ends that are not written are not given here. Peptide text beside a SMILES is read from it. dAbu(3S-yl) = C[C@@H]([C@@H](N[*:1])C(=O)[*:2])[*:3]; pGlu = O=C1CC[C@@H](C(=O)O)N1
Experiments:
Type in all cases: cell-based
GAL1R [1] = target: T1, GAL1R (Homo sapiens, UniProt P47211); test: cAMP Hunter eXpress GAL1R CHO-K1 GPCR assay (inhibition of forskolin-induced cAMP); design: expressed in transfected cells; conditions: Table 3; CHO-K1 cells expressing GAL1R; 20 µM forskolin; 10 µM to 5 nM; (average) ratio, (n) in cell = number of assays; NA = ratio above 1000
T1 sequence (P47211 1-349): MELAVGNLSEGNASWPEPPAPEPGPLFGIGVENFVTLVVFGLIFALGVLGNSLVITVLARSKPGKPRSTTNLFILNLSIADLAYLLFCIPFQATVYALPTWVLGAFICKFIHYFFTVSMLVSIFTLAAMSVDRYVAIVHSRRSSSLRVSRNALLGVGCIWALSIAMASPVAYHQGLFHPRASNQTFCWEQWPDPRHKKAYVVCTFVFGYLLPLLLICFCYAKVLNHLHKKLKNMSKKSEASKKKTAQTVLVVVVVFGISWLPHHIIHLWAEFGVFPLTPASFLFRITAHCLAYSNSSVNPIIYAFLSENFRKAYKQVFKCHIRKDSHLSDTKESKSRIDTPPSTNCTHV
Description: To evaluate the ability of lanthipeptides to […] via GAL1R signaling, we used the cAMP Hunter™ eXpress GAL1R CHO-K1 GPCR Assay from Eurofins-DiscoverX. The assay was performed according to the manufacturer’s instructions. Briefly, for one assay, CHO-K1 cells expressing GAL1R were diluted in AssayComplete™ Cell Plating 2 Reagent, and 100 µl was seeded into each well of a 96-well plate. The plate was incubated at 37 °C, 5% CO2 in a humidified incubator. After 24 h of incubation, the media was aspirated, and 45 µl cell assay buffer/antibody mixture was added to all wells. […] Fifteen µl of the serial dilutions was applied in duplicates to the cells. The concentration of forskolin in the assay was 20 µM. The agonists were incubated for 30 min at 37 °C. Next, 15 µL Antibody Solution and 60 μL cAMP Working Detection Solution were added, and the plate was incubated for 1 h in the dark at room temperature. Finally, 60 μL cAMP Solution A was added and, after 3 h of incubation in the dark at room temperature, the chemiluminescent signal was read with a Synergy HT Biotek reader.

GAL2R [2] = target: T2, GAL2R (Homo sapiens, UniProt O43603); test: PathHunter eXpress β-arrestin recruitment assay, GAL2R; design: expressed in transfected cells; conditions: Table 3; CHO-K1 cells co-expressing GAL2R and β-arrestin 2; 10 µM to 5 nM; (average) ratio, (n) in cell = number of assays; NA = ratio above 1000
T2 sequence (O43603 1-387): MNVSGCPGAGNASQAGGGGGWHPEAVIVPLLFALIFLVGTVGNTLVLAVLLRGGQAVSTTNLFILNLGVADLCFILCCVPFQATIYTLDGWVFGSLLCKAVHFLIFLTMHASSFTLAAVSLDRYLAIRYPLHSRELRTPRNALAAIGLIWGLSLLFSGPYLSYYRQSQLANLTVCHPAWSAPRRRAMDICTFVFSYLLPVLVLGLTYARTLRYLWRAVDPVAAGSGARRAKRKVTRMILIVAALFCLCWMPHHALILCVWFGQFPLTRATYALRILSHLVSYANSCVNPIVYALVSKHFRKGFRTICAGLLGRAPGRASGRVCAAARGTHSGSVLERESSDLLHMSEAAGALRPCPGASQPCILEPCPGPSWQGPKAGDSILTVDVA
Description: (§1) To evaluate the ability of lanthipeptides to recruit ß-arrestins via GAL1R or via GAL2R, we used the PathHunter® eXpress GAL1R, CHO-K1, β-arrestin GPCR Assay and the PathHunter® eXpress GAL2R, CHO-K1, β-arrestin, GPCR Assay from Eurofins-DiscoverX. The assays were performed according to the manufacturer’s instructions. Briefly, for one assay, CHO-K1 cells co-expressing GAL1R or GAL2R and β-arrestin (isoform 2) were diluted in AssayComplete™ Cell Plating Reagent, and 100 µl was seeded into each well of a 96-well plate. The plate was incubated at 37 °C, 5% CO2 in a humidified incubator. A serial 3 × dilution of the lanthipeptides in water was made (10 µM to 5 nM). After 48 h of incubation, 10 µl of the serial dilutions was applied to the cells in duplicate. The agonists were incubated for 90 min at 37 °C. Next, 55 µL of Working Detection Solution was added, and after 1 h of incubation at room temperature in the dark, the chemiluminescent signal was read with a Synergy HT Biotek reader.

GAL1R [3] = target: T1, GAL1R; test: PathHunter eXpress β-arrestin recruitment assay, GAL1R; design: expressed in transfected cells; conditions: Table 3; CHO-K1 cells co-expressing GAL1R and β-arrestin 2; 10 µM to 5 nM; (average) ratio, (n) in cell = number of assays; NA = ratio above 1000
Description: as §1

GAL2R [4] = target: T2, GAL2R; test: Fluo-4 Direct calcium assay (Ca efflux) in HEK293 cells overexpressing GAL2R; conditions: Table 3; HEK293 cells stably overexpressing GAL2R; Fluo-4, from 10 µM; (average) ratio, (n) in cell = number of assays; NA = ratio above 1000
Description: Calcium efflux was measured by using a Fluo-4 Direct Calcium Assay purchased from Thermo Fisher Scientific. HEK293 cells with stable overexpression of GAL2R (HEKR2) (kindly provided by Harald Dargatz, Molecular, Cellular and Pharmacobiology Section, Institute of Pharmaceutical Biology, University of Bonn, 53,115 Bonn, Germany) were used for analysis of the lanthipeptides. HEKR2 cells were seeded in a 96-well plate and grown overnight in DMEM supplemented with 10% FBS, 1% penicillin–streptomycin, 100 µg/ml Normocin, and 500 µg/ml G418 at 37 °C, 5% CO2 in a humidified incubator.
The next day, when the cells were nearly confluent, an equal amount of 2 × Fluo-4 Direct™ calcium reagent loading solution, containing 5 mM probenecid, was added to the wells, and the plate was incubated for 1 h at 37 °C. A serial 3 × dilution of the agonist compound in water was made, and 10 µl of the serial dilutions was applied to the cells in duplicate. The starting concentration of agonist in the assay was 10 µM. After 1–2 h of incubation at room temperature, the fluorescence was measured with excitation at 485/20 nm and emission at 528/20 nm with a Synergy HT Biotek reader.

GAL1R [5] = target: T1, GAL1R; test: Label-free dynamic mass redistribution assay, SY5Y-R1 cells; design: expressed in transfected cells; conditions: GAL1R-expressing SH-SY5Y cells; 1.6 nM to 5 µM
Description: SH-SY5Y cells stably expressing low levels of either human GAL1R (SY5Y-R1) or GAL2R (SY5Y-R2) and HEK293 cells expressing human GAL3R (HEK-R3) were seeded in EnSpire LFC-[…] well plates (Perkin Elmer) at a concentration of 12,000 cells per well and cultured overnight at 37 °C and 5% CO2. The medium was aspired, and the cells were washed four times with Hank’s balanced salt solution (HBSS) (+ calcium, + magnesium) supplemented with HEPES (20 mM), and the final volume was adjusted to 30 µl per well. The plate was allowed to equilibrate to assay temperature for 1 h in the EnSpire multimode reader (Perkin Elmer). Galanin-(1–30) (GL Biochem) was dissolved and diluted in water. […] A baseline read was first generated by taking 4 measurements before ligands were added. The plate was measured between 30 and 70 repeats, and each treatment was performed in triplicate. […] EC50 values were calculated using Prism 8.2.0 (GraphPad Software Inc.). The values are provided as means of all independent experiments.

Molecule	EC50 ratios to Gal-(1-15), GAL1R cAMP (GAL1R [1])	EC50 ratios to Gal-(1-15), GAL2R ß-Arrestin (GAL2R [2])	EC50 ratios to Gal-(1-15), GAL1R ß-Arrestin (GAL1R [3])	EC50 ratios to Gal-(1-15), GAL2R Ca-efflux (GAL2R [4])	Stimulation of GAL1R, DMR in SY5YR1 cells (GAL1R [5])
CC(C)C[C@H](NC(=O)[C@H](CC(C)C)NC(=O)[C@H](Cc1ccc(O)cc1)NC(=O)CNC(=O)[C@H](C)NC(=O)[C@H](C)NC(=O)[C@H](CC(N)=O)NC(=O)[C@H](CC(C)C)NC(=O)[C@H](CC(N)=O)NC(=O)[C@H](Cc1c[nH]c2ccccc12)NC(=O)[C@@H]1CCC(=O)N1)C(=O)N[C@@H](C)C(=O)N[C@H]1C(=O)N[C@@H](Cc2c[nH]cn2)C(=O)N[C@@H](C)C(=O)N[C@H](C(=O)NCC(=O)N[C@@H](CC(N)=O)C(=O)N[C@@H](Cc2c[nH]cn2)C(=O)N[C@@H](CCCNC(=N)N)C(=O)O)CS[C@H]1C [Variant M50b] ([pGlu]WNLNAAGYLLA[dAbu(3S-yl)]HACGNHR-OH; thioether 13-16; C-terminus assumed)	NA (2) (NA is not active; ratios above 1000 were considered to be not active)	4.7 (3)	NA (1) (NA is not active; ratios above 1000 were considered to be not active)	2.8 (3)	stimulate GAL2R only, not GAL1R
GWNLNAAGYLLGPTAVC (also: sidechain bridge or staple (positions not given here)) [Variant M85, methyllanthionine-containing galanin variant produced in L. lactis]	11.6 (1)	6.2 (1)	18.0 (1)	4.7 (1)	
[pGlu]WNLNAAGYLLGATAVC (also: sidechain bridge or staple (positions not given here)) [Variant M91, pyroglutamate- and methyllanthionine-containing galanin variant]	NA (1) (NA is not active; ratios above 1000 were considered to be not active)	1.5 (1)	3 (1)	1.3 (1)	
[pGlu]WNLNAAGYLLGATAVCNH (also: sidechain bridge or staple (positions not given here)) [Variant M54tr, pyroglutamate- and methyllanthionine-containing galanin variant]	16 (1)	1 (1)	NA (1) (NA is not active; ratios above 1000 were considered to be not active)	1.2 (2)	
[pGlu]WNLNAAGYLLGATAVGCHR (also: sidechain bridge or staple (positions not given here)) [Variant M76b, pyroglutamate- and methyllanthionine-containing galanin variant]	12.2 (1)	0.5 (1)	9.6 (1)	1.0 (1)	
[pGlu]WNLNAAGYLLGPHTVGCHR (also: sidechain bridge or staple (positions not given here)) [Variant M83, pyroglutamate- and methyllanthionine-containing galanin variant]	NA (1) (NA is not active; ratios above 1000 were considered to be not active)	78 (1)	123 (1)	7.3 (1)	
[pGlu]WNLNAAGYLLGPTAVC (also: sidechain bridge or staple (positions not given here)) [Variant M87, pyroglutamate- and methyllanthionine-containing galanin variant]	NA (1) (NA is not active; ratios above 1000 were considered to be not active)	4.8 (1)	260 (1)	1.9 (2)	

From PMC8804135 (Neurotherapeutics, 2021)
